In the NIST ThermoML archive (doi:10.1021/je060271a):
Values joined by “and” are separate entries in the source; they are usually repeats but may differ in a detail not shown here. Equal entries are not always repeated. ± gives the expanded uncertainty stated by the source.

Conditions: 343.15 K, Liquid, Vibrating tube method

CCCCCCC(=O)OCC(COC(=O)CCCCCC)(COC(=O)CCCCCC)COC(=O)CCCCCC [pentaerythritol tetraheptanoate]
mass density (30538 kPa): 961.6 ± 1.2 kg/m3
mass density (30568 kPa): 961.6 ± 1.2 kg/m3
mass density (30571 kPa): 961.6 ± 1.2 kg/m3
mass density (30599 kPa): 961.6 ± 1.2 kg/m3
mass density (30602 kPa): 961.8 ± 1.2 kg/m3
mass density (30627 kPa): 961.7 ± 1.2 kg/m3
mass density (30642 kPa): 961.7 ± 1.2 kg/m3
mass density (30660 kPa): 961.6 ± 1.2 kg/m3
mass density (30675 kPa): 961.7 ± 1.2 kg/m3
mass density (30688 kPa): 961.8 ± 1.2 kg/m3
mass density (30710 kPa): 961.8 ± 1.2 kg/m3
mass density (30716 kPa): 961.7 ± 1.2 kg/m3
mass density (30744 kPa): 961.7 ± 1.2 kg/m3
mass density (30778 kPa): 961.7 ± 1.2 kg/m3
mass density (30785 kPa): 961.7 ± 1.2 kg/m3
mass density (30806 kPa): 961.8 ± 1.2 kg/m3
mass density (30819 kPa): 961.8 ± 1.2 kg/m3
mass density (30835 kPa): 961.8 ± 1.2 kg/m3
mass density (30860 kPa): 961.8 ± 1.2 kg/m3
mass density (30870 kPa): 961.7 ± 1.2 kg/m3
mass density (30894 kPa): 961.8 ± 1.2 kg/m3
mass density (30900 kPa): 961.7 ± 1.2 kg/m3
mass density (30928 kPa): 961.8 ± 1.2 kg/m3 and 962 ± 1.2 kg/m3
mass density (30956 kPa): 961.9 ± 1.2 kg/m3
mass density (30970 kPa): 962 ± 1.2 kg/m3
mass density (30990 kPa): 961.7 ± 1.2 kg/m3
mass density (31004 kPa): 961.9 ± 1.2 kg/m3
mass density (31019 kPa): 961.9 ± 1.2 kg/m3
mass density (31040 kPa): 962.1 ± 1.2 kg/m3
mass density (31048 kPa): 961.8 ± 1.2 kg/m3
mass density (31081 kPa): 962 ± 1.2 kg/m3
mass density (31082 kPa): 961.8 ± 1.2 kg/m3
mass density (31111 kPa): 962 ± 1.2 kg/m3
mass density (31116 kPa): 962 ± 1.2 kg/m3
mass density (31145 kPa): 962.1 ± 1.2 kg/m3
mass density (31151 kPa): 962 ± 1.2 kg/m3
mass density (31174 kPa): 962.1 ± 1.2 kg/m3
mass density (31193 kPa): 962.1 ± 1.2 kg/m3
mass density (31203 kPa): 961.9 ± 1.2 kg/m3
mass density (31229 kPa): 962.1 ± 1.2 kg/m3
mass density (31238 kPa): 962 ± 1.2 kg/m3
mass density (31264 kPa): 962.1 ± 1.2 kg/m3
mass density (31268 kPa): 962 ± 1.2 kg/m3
mass density (31298 kPa): 962.1 ± 1.2 kg/m3
mass density (31306 kPa): 962 ± 1.2 kg/m3
mass density (31327 kPa): 962 ± 1.2 kg/m3
mass density (31342 kPa): 962.2 ± 1.2 kg/m3
mass density (31362 kPa): 962.1 ± 1.2 kg/m3
mass density (31377 kPa): 962 ± 1.2 kg/m3
mass density (31392 kPa): 962.1 ± 1.2 kg/m3
mass density (31420 kPa): 962.3 ± 1.2 kg/m3
mass density (31427 kPa): 962.1 ± 1.2 kg/m3
mass density (31456 kPa): 962 ± 1.2 kg/m3
mass density (31457 kPa): 962.2 ± 1.2 kg/m3
mass density (31486 kPa): 962.2 ± 1.2 kg/m3
mass density (31492 kPa): 962.3 ± 1.2 kg/m3
mass density (31516 kPa): 962.2 ± 1.2 kg/m3
mass density (31528 kPa): 962.2 ± 1.2 kg/m3
mass density (31552 kPa): 962.2 ± 1.2 kg/m3
mass density (31571 kPa): 962.3 ± 1.2 kg/m3
mass density (31582 kPa): 962.3 ± 1.2 kg/m3
mass density (31608 kPa): 962.4 ± 1.2 kg/m3
mass density (31611 kPa): 962.3 ± 1.2 kg/m3
mass density (31644 kPa): 962.3 ± 1.2 kg/m3
mass density (31647 kPa): 962.2 ± 1.2 kg/m3
mass density (31678 kPa): 962.4 ± 1.2 kg/m3
mass density (31688 kPa): 962.3 ± 1.2 kg/m3
mass density (31715 kPa): 962.3 ± 1.2 kg/m3
mass density (31725 kPa): 962.5 ± 1.2 kg/m3
mass density (31745 kPa): 962.3 ± 1.2 kg/m3
mass density (31761 kPa): 962.4 ± 1.2 kg/m3
mass density (31775 kPa): 962.4 ± 1.2 kg/m3
mass density (31805 kPa): 962.4 ± 1.2 kg/m3
mass density (31807 kPa): 962.4 ± 1.2 kg/m3
mass density (31841 kPa): 962.4 ± 1.2 kg/m3
mass density (31844 kPa): 962.4 ± 1.2 kg/m3
mass density (31871 kPa): 962.5 ± 1.2 kg/m3
mass density (31874 kPa): 962.4 ± 1.2 kg/m3
mass density (31905 kPa): 962.5 ± 1.2 kg/m3
mass density (31914 kPa): 962.5 ± 1.2 kg/m3
mass density (31942 kPa): 962.3 ± 1.2 kg/m3
mass density (31958 kPa): 962.4 ± 1.2 kg/m3
mass density (31972 kPa): 962.6 ± 1.2 kg/m3
mass density (32003 kPa): 962.4 ± 1.2 kg/m3
mass density (32009 kPa): 962.5 ± 1.2 kg/m3
mass density (32040 kPa): 962.6 ± 1.2 kg/m3
mass density (32041 kPa): 962.6 ± 1.2 kg/m3
mass density (32071 kPa): 962.6 ± 1.2 kg/m3
mass density (32078 kPa): 962.5 ± 1.2 kg/m3
mass density (32104 kPa): 962.5 ± 1.2 kg/m3
mass density (32115 kPa): 962.6 ± 1.2 kg/m3
mass density (32136 kPa): 962.5 ± 1.2 kg/m3
mass density (32160 kPa): 962.6 ± 1.2 kg/m3
mass density (32173 kPa): 962.5 ± 1.2 kg/m3
mass density (32199 kPa): 962.6 ± 1.2 kg/m3
mass density (32205 kPa): 962.6 ± 1.2 kg/m3
mass density (32236 kPa): 962.7 ± 1.2 kg/m3
mass density (32237 kPa): 962.7 ± 1.2 kg/m3
mass density (32274 kPa): 962.7 ± 1.2 kg/m3
mass density (32282 kPa): 962.7 ± 1.2 kg/m3
mass density (32305 kPa): 962.7 ± 1.2 kg/m3
mass density (32320 kPa): 962.7 ± 1.2 kg/m3
mass density (32337 kPa): 962.6 ± 1.2 kg/m3
mass density (32358 kPa): 962.7 ± 1.2 kg/m3
mass density (32368 kPa): 962.7 ± 1.2 kg/m3
mass density (32403 kPa): 962.8 ± 1.2 kg/m3
mass density (32406 kPa): 962.7 ± 1.2 kg/m3
mass density (32438 kPa): 962.8 ± 1.2 kg/m3
mass density (32441 kPa): 962.8 ± 1.2 kg/m3
mass density (32471 kPa): 962.8 ± 1.2 kg/m3
mass density (32480 kPa): 962.9 ± 1.2 kg/m3
mass density (32509 kPa): 962.8 ± 1.2 kg/m3
